Experimental data: patent US20120059037A1, “SUBSTITUTED PYRIDINE DERIVATIVES AND THEIR MEDICAL USE” (NEUROSEARCH A/S, priority 2009, published 2012)

Target: T1, human Kv7.2+3 (Homo sapiens, UniProt O43525+O43526)
T1 construct: expressed in transfected cells; host or cells: HEK293
Assay: FLIPR-based characterization of Kv7.2+3 modulators (thallium influx)
Assay type: cell-based
Details: HEK293 cells over-expressing human Kv7.2+3; for EC50: Tl+ influx, BTC-AM, FLIPR, relative to retigabine control responses; for Efficacy: maximal response relative to the reference (retigabine) response
Method: This experiment determines the ability of a test compound to modulate the activity of Kv7.2+3 channels heterologously expressed in human HEK293 cells. The ability is determined relative to retigabine. The activity is determined using a standard thallium (I) sensitive assay, e.g. using a fluorometric method in a Fluorescent Image Plate Reader (FLIPR) as described below in more detail.
Full concentration/response curves are generated and EC50 values are calculated based on max values. EC50 values (Effective Concentration) represent the concentration of the test substance, at which 50% of the channel activity is obtained when compared to retigabine control responses. Maximal response determined relative to the reference (retigabine) response is calculated.
Human HEK293 cells over-expressing human Kv7.2+3 are grown in culture medium (DMEM supplemented with 10% foetal bovine serum), in polystyrene culture flasks ([…]) in a humidified atmosphere of 5% CO2 in air, at 37° C. Cell confluence should be 80-90% on day of plating. Cells are rinsed with 4 ml of PBS (phosphate buffered saline) and incubated 2 min with 1 ml of Trypsin-EDTA. After addition of 25 ml of culture medium cells are re-suspended by trituration with a 25 ml pipette.
The cells are seeded at a density of ˜3×10^6 cells/ml (25 μl/well) in black-walled, clear bottom, 384-well plates pre-treated with 0.01 g/l poly-D-lysin (20 μl/well for ≧30 min). Plated cells were allowed to proliferate for 24 h before loading with dye.
BTC-AM (50 mg, Invitrogen) is added 25.5 μl DMSO. The BTC-AM stock solution (2 mM) is diluted to a final concentration of 2 μM in Cl^− free assay buffer (in mM: 140 Na^+-gluconate, 2.5 K^+-gluconate, 6 Ca2^+-gluconate, 1 Mg^2+ gluconate, 5 glucose, 10 HEPES, pH 7.3) containing 2 μM ouabain, 2 mM amaranth and 1 mM tartrazine.
The culture medium is aspirated from the wells, the cells are washed thrice in Cl^− free assay buffer, and 25 μl of the BTC-AM loading solution is added to each well. The cells are incubated at 37° C. for 60 min.
After the loading period, the Tl^+-sensitive BTC fluorescence signal is measured over time using a FLIPR.
• Temperature: Room temp. • First addition: 12 μl test or control compound after 15 sec at a rate of 30 μl/sec and starting height of 20 μl • Second addition: 12 μl stimulus buffer (Cl^− free assay buffer supplemented with 1 mM Tl2SO4, 5 mM K2SO4 as well as the quenchers amaranth (2 mM) and tartrazine (1 mM)) is added after an additional 3 minutes at a rate of 30 μl/sec and starting height of 30 μl • Reading intervals: First sequence—3 sec×5, 2 sec×24 and 5 sec×25 • Second sequence—1 sec×5, 2 sec×24 and 5 sec×36 Addition plates (compound plate and stimulus plate) are placed in positions 2 and 3, respectively. Cell plates are placed in position 1 and run using the “KCNQ (two additions)” program. FLIPR will then take the appropriate measurements in accordance with the interval settings above. Fluorescence obtained after stimulation is corrected for the mean basal fluorescence (in Cl^− free assay buffer).
Full concentration/response curves are generated and EC50 values (“Effective Concentration”; the concentration at which 50% of the channel activity is obtained when compared to retigabine control responses) are calculated based on peak values. Maximal response determined relative to the reference (retigabine) response is calculated.

SMILES	EC50	Efficacy
CC(C)(C)CC(=O)Nc1ccc(NCc2ccc(Cl)nc2)nc1N1CCCC1 [Compound 1.3, N-{6-[(6-Chloro-pyridin-3-ylmethyl)-amino]-2-pyrrolidin-1-yl-pyridin-3-yl}-3,3-dimethyl-butyramide]	66 nM	100%
O=C(Cc1cc(F)cc(F)c1)Nc1ccc(NCc2cccnc2)nc1N1CCCC1 [Compound 1.2, 2-(3,5-Difluoro-phenyl)-N-{6-[(pyridin-3-ylmethyl)-amino]-2-pyrrolidin-1-yl-pyridin-3-yl}-acetamide]	20 nM	108%
O=C(Cc1cc(F)cc(F)c1)Nc1ccc(NCc2ccc(Cl)nc2)nc1N1CCCC1 [Compound 1.1, N-{6-[(6-Chloro-pyridin-3-ylmethyl)-amino]-2-pyrrolidin-1-yl-pyridin-3-yl}-2-(3,5-difluoro-phenyl)-acetamide]	66 nM	100%
